The target of test [1] is T1, HCV genotype 1b (BK) NS3 modified enzyme with a R155K mutation (Hepatitis C virus genotype 1b, UniProt P26663, R1181K).
T1 construct: HCV genotype 1b (BK) NS3 modified enzyme
The test is described as follows: HCV NS3 protease time-resolved fluorescence (TRF) assay, genotype 1b R155K. Format: biochemical. The conditions noted are these: Ki 1b R155K, genotype 1b (BK) NS3 R155K; single value. In a few lines:
(§1)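 Steps: compound plus NS3/NS4A enzyme for 10 minutes; add peptide substrate to 25 nM; let cleavage proceed 6 hours at room temperature; read product fluorescence (340 nm excitation, 615 nm emission, delayed 400 μs). Enzyme levels gave signal/background 5-20.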

Test [2] concerns the target HCV NS3 protease genotype 3a (3A-1) (Hepatitis C virus genotype 3a, UniProt Q81258). Put plainly: HCV NS3 protease time-resolved fluorescence (TRF) assay, genotype 3a. Format: biochemical. The settings on record: Ki 3a. In short, it runs like this: as §1

`C=C[C@@H]1C[C@]1(NC(=O)[C@@H]1C[C@@H]2CN1C(=O)[C@H](C1CCCCC1)NC(=O)O[C@@H]1C[C@H]1CCCCCc1c(nc3ccccc3c1OCCCN1CC[C@@H](O)C1)O2)C(=O)NS(=O)(=O)C1(C)CC1` [Example 169, (1aR,5S,8S,10R,22aR)-5-cyclohexyl-N-[(1R,2S)-2-ethenyl-1-{[(1-methylcyclopropyl)sulfonyl]carbamoyl}cyclopropyl]-17-{3-[(3R)-3-hydroxypyrrolidin-1-yl]propoxy}-3,6-dioxo-1,1a,3,4,5,6,9,10, 18,19,20,21,22,22a-tetradeca hydro-8H-7,10-methanocyclopropa[18,19][1,10,3,6] dioxadiazacyclononadecino[11,12-b] quinoline-8-carboxamide]: the Ki came to 0.042 nM in test [1] and 0.75 nM in test [2].

Turning to `C=C[C@@H]1C[C@]1(NC(=O)[C@@H]1C[C@@H]2CN1C(=O)[C@H](C(C)(C)C)NC(=O)O[C@@H]1CCC[C@H]1CCCCCc1c(nc3ccccc3c1OCCN1CCOCC1)O2)C(=O)NS(=O)(=O)C1(C(C)(C)O)CC1` [Example 108, (3aR,7S,10S,12R,24aR)-7-tert-butyl-N-[(1R,2S)-2-ethenyl-1-({[1-(2-hydroxypropan-2-yl)cyclopropyl]sulfonyl}carbamoyl)cyclopropyl]-19-[2-(morpholin-4-yl)ethoxy]-5,8-dioxo-1,2,3,3a,5,6,7,8,11, 12,20,21,22,23,24,24a-hexadeca hydro-10H-9,12-methanocyclopenta [18,19][1,10,3,6]dioxadiaza-cyclononadecino [11,12-b]quinoline-10-carboxamide], the results for the inhibitory constant (Ki) in test [1] and in test [2] were 0.93 nM and 23 nM, respectively.

Regarding `CCOc1c2c(nc3ccccc13)O[C@@H]1C[C@@H](C(=O)N[C@]3(C(=O)NS(=O)(=O)C4CC4)C[C@H]3CC)N(C1)C(=O)[C@H](C1CCCC1)NC(=O)O[C@@H]1CCC[C@H]1CCCCC2` [Example 25, (3aR,7S,10S,12R,24aR)-7-cyclo pentyl-N-{(1R,2R)-1-[(cyclopropylsulfonyl)carbamoyl]-2-ethylcyclopropyl}-19-ethoxy-5,8-dioxo-1,2,3,3a,5,6,7,8,11,12,20,21,22,23,24,24a-hexadecahydro-10H-9,12-methanocyclopenta[18,19][1,10,3,6]dioxa diazacyclononadecino[11,12-b]quinoline-10-carboxamide], the Ki is 5.2 nM in test [1] and 88 nM in test [2].

Consider `C=C[C@@H]1C[C@]1(NC(=O)[C@@H]1C[C@@H]2CN1C(=O)[C@H](C1CCCCC1)NC(=O)O[C@@H]1C[C@H]1CCCCCc1c(nc3ccccc3c1OCCN1CCOCC1)O2)C(=O)NS(=O)(=O)C1(C)CC1` [Example 122, (1aR,5S,8S,10R,22aR)-5-cyclohexyl-N-[(1R,2S)-2-ethenyl-1-{[(1-methylcyclopropyl)sulfonyl]carbamoyl}cyclopropyl]-17-[2-(morpholin-4-yl)ethoxy]-3,6-dioxo-1,1,a,3,4,5,6,9,10,18,19,20,21, 22,22a-tetradecahydro-8H-7,10-methanocyclopropa[18,19][1,10,3,6] dioxadiazacyclononadecino [11,12-b]quinoline-8-carboxamide], for which the Ki in test [1] was found to be 0.33 nM; in test [2], 8.8 nM.

Regarding `C=C[C@@H]1C[C@]1(NC(=O)[C@@H]1C[C@@H]2CN1C(=O)[C@H](C(C)(C)C)NC(=O)O[C@@H]1C[C@H]1CCCCCc1c(nc3cc(C)ccc3c1OCCCNC1CC1)O2)C(=O)NS(=O)(=O)C1(C)CC1` [Example 145, (1aR,5S,8S,10R,22aR)-5-tert-butyl-17-[3-(cyclopropylamino)propoxy]-N-[(1R,2S)-2-ethenyl-1-{[(1-methylcyclopropyl)sulfonyl]carbamoyl}cyclopropyl]-14-methyl-3,6-dioxo-1,1a,3,4,5,6,9,10,18,19,20,21,22,22a-tetradecahydro-8H-7,10-methanocyclopropa[18,19][1,10,3,6]dioxadiazacyclononadecino[11,12-b]quinoline-8-carboxamide], the Ki in test [1] amounted to 0.079 nM; in test [2] it was 1.2 nM.

These data come from patent publication US9328138B2 (priority 2011, dated 2016).
